What all share (experiment): drug sensitivity score (DSS) from 5-dose viability curve (DSS (area-based score, 0 = no response)); higher = more sensitive (stronger viability inhibition); extreme values may be limits of the assay
Experiment [1] relates to MDCK wild-type - doxycycline. The settings on record: doxycycline: none; 72 h. Put shortly: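 An oncology library of 528 drugs was pre-spotted at five doses (1-10,000 nM) in 384-well plates, and parental MDCK cells without doxycycline were added at 2000 cells/well. The plates were kept at 37 °C for 72 h. Drug sensitivity scores were obtained by fitting dose-response curves in the Breeze pipeline to CellTiter-Glo viability readings scaled per plate between vehicle and positive controls.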

Experiment [2] deals with MDCK wild-type + doxycycline. The settings on record: doxycycline: 10 ng/mL; 72 h. An outline of the steps:
(§1)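 Parental MDCK cells and MDCK cells with a doxycycline-inducible transgene were both grown with doxycycline at 10 ng/mL in the medium before plating, then dispensed at 2000 cells/well into 384-well plates pre-spotted with an oncology library of 528 drugs at five doses (1-10,000 nM). After 72 h at 37 °C, CellTiter-Glo luminescence was recorded and scaled on each plate between vehicle and positive controls. This scaled signal served as the viability readout, and drug sensitivity scores were derived from dose-response curve fits in the Breeze pipeline.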

In experiment [3] the test system is MDCK p60AmotL2-inducible + doxycycline (p60AmotL2 expressing). As to conditions: doxycycline: 10 ng/mL; 72 h. An outline of the steps:
as §1

For `COc1cc2c(Nc3ccc(Cl)c(Cl)c3F)ncnc2cc1OC[C@@H]1C[C@@H]2CN(C)C[C@@H]2C1` [Tesevatinib], the drug sensitivity score in experiment [1] came out at 5.8; in experiment [2] it was 8.5; in experiment [3], 18.9.
With `O=C1CCC(N2C(=O)c3ccccc3C2=O)C(=O)N1` (configuration not stated) [Thalidomide], the drug sensitivity score in experiment [1], in experiment [2] and in experiment [3] was 0 throughout.
On to `Nc1nc2[nH]cnc2c(=S)[nH]1` [Thioguanine], for which the drug sensitivity score stood at 1.1 in experiment [1], 3.8 in experiment [2] and 1.5 in experiment [3].
Consider `O=c1sn(-c2cccc3ccccc23)c(=O)n1Cc1ccccc1` [Tideglusib], for which the drug sensitivity score in experiment [1], in experiment [2] and in experiment [3] was 0 each time.
With `Cn1cncc1[C@@](N)(c1ccc(Cl)cc1)c1ccc2c(c1)c(-c1cccc(Cl)c1)cc(=O)n2C` [Tipifarnib], the results for the drug sensitivity score in experiment [1], in experiment [2] and in experiment [3] were 2.5, 4.4 and 9.6, respectively.
For `CC#CC(=O)N1CC[C@@H](n2c(=O)n(-c3ccc(Oc4ccccc4)cc3)c3c(N)ncnc32)C1` [Tirabrutinib], the drug sensitivity score in experiment [1] was 0; in experiment [2], 0.8; in experiment [3] it was 4.
For `O=C1NC(=O)[C@@H](c2cn3c4c(cccc24)CCC3)[C@@H]1c1c[nH]c2ccccc12` [Tivantinib], the drug sensitivity score came to 1.6 in experiment [1], 3.4 in experiment [2] and 2.7 in experiment [3].
For `COc1cc2nccc(Oc3ccc(NC(=O)Nc4cc(C)on4)c(Cl)c3)c2cc1OC` [Tivozanib], the values for the drug sensitivity score in experiment [1], in experiment [2] and in experiment [3] were 2.5, 8.2 and 4.4, respectively.
On to `C[C@@H]1CCN(C(=O)CC#N)C[C@@H]1N(C)c1ncnc2[nH]ccc12` [Tofacitinib], for which the drug sensitivity score in experiment [1], in experiment [2] and in experiment [3] was 0 in each case.
With `CC[C@@]1(O)C(=O)OCc2c1cc1n(c2=O)Cc2cc3c(CN(C)C)c(O)ccc3nc2-1` [Topotecan], the drug sensitivity score came to 8.1 in experiment [1], 10.1 in experiment [2] and 11.5 in experiment [3].
With `CN(C)CCOc1ccc(/C(=C(/CCCl)c2ccccc2)c2ccccc2)cc1` [Toremifene], the drug sensitivity score in experiment [1] was 0; in experiment [2], 3.6; in experiment [3] it was 4.6.
The corresponding values for `CC(C)C[C@@H](C(=O)N[C@H](C(=O)OC1CCCC1)c1ccccc1)[C@H](O)C(=O)NO` [Tosedostat] are 1.4, 1.7 and 2.5.
In the same order, the values of `Cc1cc(Nc2cc(N3CCN(C)CC3)nc(Sc3ccc(NC(=O)C4CC4)cc3)n2)n[nH]1` [Tozasertib] are 1.4, 4.2 and 8.6.
Take `CC(=O)Nc1cccc(-n2c(=O)n(C3CC3)c(=O)c3c(Nc4ccc(I)cc4F)n(C)c(=O)c(C)c32)c1` [Trametinib]: the figures for the drug sensitivity score in experiment [1], in experiment [2] and in experiment [3] were 6.6, 7.4 and 15.8, respectively.
Turning to `CC1=C(/C=C/C(C)=C/C=C/C(C)=C/C(=O)O)C(C)(C)CCC1` [Tretinoin], the drug sensitivity score in experiment [1] is 0.7; in experiment [2], 0; in experiment [3], 0.
As for `NC(=S)N/N=C/c1ncccc1N` [Triapine], the drug sensitivity score in experiment [1] was 4.7; in experiment [2], 3.6; in experiment [3] it was 3.9.
The corresponding values for `O=c1[nH]c(=O)n([C@H]2C[C@H](O)[C@@H](CO)O2)cc1C(F)(F)F` [Trifluridine] are 1.4, 1.4 and 2.6.
In the same order, the values of `O=C(CCCCCCC(=O)Nc1ccc([C@H]2O[C@@H](CSc3nc(-c4ccccc4)c(-c4ccccc4)o3)C[C@@H](c3ccc(CO)cc3)O2)cc1)NO` [Tubacin] are 0, 0 and 0.
Consider `CN1CCc2c(c3ccccc3n2Cc2ccc(C(=O)NO)cc2)C1` [Tubastatin A], for which the values for the drug sensitivity score in experiment [1], in experiment [2] and in experiment [3] were 0, 0 and 0.7, respectively.
As for `Cc1cc(Nc2ncnc3ccc(NC4=NC(C)(C)CO4)cc23)ccc1Oc1ccn2ncnc2c1` [Tucatinib], the drug sensitivity score in experiment [1], in experiment [2] and in experiment [3] was 0 each time.
Consider `Nc1cc(F)ccc1NC(=O)c1ccc(CNC(=O)/C=C/c2cccnc2)cc1` [Tucidinostat], for which the drug sensitivity score was found to be 0.8 in experiment [1], 2.4 in experiment [2] and 2.6 in experiment [3].
In the same order, the values of `CN[C@@H]1C[C@H]2O[C@@](C)([C@@H]1OC)n1c3ccccc3c3c4c(c5c6ccccc6n2c5c31)C(=O)N[C@H]4O` [UCN-01] are 18.1, 18.5 and 14.5.
The corresponding values for `COC(=O)c1ccc2c(c1)[nH]c1ncnc(NCCCN3CCCCC3)c12` [UM729] are 0, 0.9 and 3.
In the same order, the values of `COc1cc2c(NC3CCN(C(C)C)CC3)nc(C3CCCCC3)nc2cc1OCCCN1CCCC1` [UNC0638] are 5.2, 5.3 and 5.
Take `COc1cc2c(NC3CCN(C(C)C)CC3)nc(N3CCC(F)(F)CC3)nc2cc1OCCCN1CCCC1` [UNC0642]: the drug sensitivity score in experiment [1] was determined as 0; in experiment [2] it was 0; in experiment [3], 0.2.
With `O=C(c1ccc(C(=O)N2CCC(N3CCCC3)CC2)c(Nc2ccccc2)c1)N1CCC(N2CCCC2)CC1` [UNC1215], the drug sensitivity score in experiment [1], in experiment [2] and in experiment [3] was 0 each time.
For the compound `CCCCNc1ncc(C(=O)NCc2ccc(-n3ccnc3)cc2)c(NC2CCC(O)CC2)n1` (configuration not stated) [UNC2881], the drug sensitivity score in experiment [1] came to 0; in experiment [2] it was 0; in experiment [3] it was 1.9.
As to `NC(=O)c1cccc(-c2cccc(OC(=O)NC3CCCCC3)c2)c1` [URB597], the drug sensitivity score in experiment [1], in experiment [2] and in experiment [3] was 0 each time.
Take `CC(C)Nc1cc(-c2c[nH]c(C(=O)N[C@H](CO)c3cccc(Cl)c3)c2)c(Cl)cn1` [Ulixertinib]: the drug sensitivity score in experiment [1] is 3.2; in experiment [2] it was 4.9; in experiment [3] it was 9.6.
In the same order, the values of `CC[C@@H]1CN(C(=O)NCC(F)(F)F)C[C@@H]1c1cnc2cnc3[nH]ccc3n12` [Upadacitinib] are 0, 0 and 0.
As to `Cn1ncc(Cl)c1-c1cc(C(=O)N[C@H](CN)Cc2ccc(F)c(F)c2)oc1Cl` [Uprosertib], the drug sensitivity score in experiment [1], in experiment [2] and in experiment [3] was 0 in each case.
With `CS(=O)(=O)c1ccc(-c2cnc(N)c(C(=O)Nc3ccccc3)n2)cc1` [VE-821], the drug sensitivity score in experiment [1], in experiment [2] and in experiment [3] was 0 in each case.
With `O=C(O)CC1CC(c2ccccc2)=NO1` (configuration not stated) [VGX-1027], the drug sensitivity score in experiment [1], in experiment [2] and in experiment [3] was 0 in each case.
On to `C=CC(=O)N1CC/C(=C\c2ccc(F)c([N+](=O)[O-])c2)C(=O)/C(=C/c2ccc(F)c([N+](=O)[O-])c2)C1` [VLX1570], for which the values for the drug sensitivity score in experiment [1], in experiment [2] and in experiment [3] were 15.5, 17.3 and 17.2, respectively.
In the same order, the values of `CNC(=O)c1ccccc1Nc1cc(Nc2ccc(N3CCOCC3)cc2OC)ncc1C(F)(F)F` [VS-4718] are 3.6, 4.7 and 5.6.
In the same order, the values of `CCCC(CCC)C(=O)O` [Valproic acid] are 0, 0 and 0.
In the same order, the values of `CCCCC(=O)OCC(=O)[C@]1(O)Cc2c(O)c3c(c(O)c2[C@@H](O[C@H]2C[C@H](NC(=O)C(F)(F)F)[C@H](O)[C@H](C)O2)C1)C(=O)c1c(OC)cccc1C3=O` [Valrubicin] are 5.7, 8.8 and 12.9.
`COc1cc2/c(=N/c3ccc(Br)cc3F)nc[nH]c2cc1OCC1CCN(C)CC1` [Vandetanib]: the drug sensitivity score was found to be 0 in experiment [1], 0 in experiment [2] and 4.6 in experiment [3].
Regarding `CCc1c(C(=O)C(N)=O)c2c(OCC(=O)O)cccc2n1Cc1ccccc1` [Varespladib], the drug sensitivity score in experiment [1], in experiment [2] and in experiment [3] was 0 each time.

These data come from the supplement of paper PMC11003180.
